Source: patent publication US20040235798A1, “Compositions and methods for inhibiting prenyltransferases” (priority 2001, published 2004)
pIC50: −log10 of the molar value.

How the values were obtained:
[1] = target: CAK1 (Candida albicans, UniProt A0A1D8PH53); test: CAK1 inhibition, time-resolved fluorescence (FRET) kinase assay with biotin-his-cdk2 substrate; assay type: biochemical; conditions: 10 nM his-CAK1, 20 μM ATP, 30 min room temperature
Description: The following protocol was used for measuring CAK1 inhibition by test compounds:
A compound plate was pre-made with 20 μg/ml compound dissolved in 100% DMSO in each well of a 384-well plate (polypropylene, Coming cat # 29445-136), except for two control columns, wherein each well contained 100% DMSO.
A substrate plate was prepared by adding a pre-determined volume of substrate solution (925 nM biotin-his-cdk2 in reaction buffer) into each well of a 96-well deep-well plate (Beckman cat. 267006). To the control wells of the plate, 1/20 vol. of positive control and blank solutions were added according to the plate map. Positive control solutions are Olomoucine (MTX-277859) at 0.25, 0.75, 2.25, 6.75 mM, respectively, in DMSO, and blank solution is 50 mM EDTA in reaction buffer (50 mM Tris-HCl (pH 7.5), 50 mM NaCl, 0.1 mg/mL BSA, 100 μM MgCl2).
The reaction plate (384-well polystyrene black, Packard Opti plate, Cat.# 6005256) was loaded with a volume of 2.0 μL of samples from the compound plate and 8.0 μL of substrate solution from the substrate plate. 10 μl of enzyme solution (10 nM his-CAK1, 20 μM ATP in reaction buffer) was added to start the reaction. The plate was covered with a lid and incubated at room temperature for 30 min.
10 μl of FRET solution (45 nM streptavidin-APC*, 30 nM Europium-Ab, 3 mM EDTA in reaction buffer) was added to each of the wells of the reaction plate to stop the reaction. The time-resolved fluorescence was measured on a Wallac Victor fluorometer (excitation 340 nm, emission 665 nm, delay time 100 μs, window time 100 μs).

[2] = target: T1, fungal N-myristoyltransferase (Candida albicans, UniProt P30418); conditions: cited from earlier work
T1 sequence (P30418 1-451): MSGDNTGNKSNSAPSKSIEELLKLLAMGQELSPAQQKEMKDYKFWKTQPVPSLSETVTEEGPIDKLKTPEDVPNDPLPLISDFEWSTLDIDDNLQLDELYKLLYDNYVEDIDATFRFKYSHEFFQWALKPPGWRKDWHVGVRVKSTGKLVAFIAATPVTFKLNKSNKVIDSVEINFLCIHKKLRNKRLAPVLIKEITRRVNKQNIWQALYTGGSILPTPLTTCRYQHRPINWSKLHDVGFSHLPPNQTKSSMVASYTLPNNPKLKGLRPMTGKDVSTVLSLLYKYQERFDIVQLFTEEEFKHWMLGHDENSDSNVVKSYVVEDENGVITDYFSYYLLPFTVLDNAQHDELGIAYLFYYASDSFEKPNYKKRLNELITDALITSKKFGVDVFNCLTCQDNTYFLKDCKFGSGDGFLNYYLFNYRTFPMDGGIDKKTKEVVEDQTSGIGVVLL

[3] = target: C. albicans GGPTase (Candida albicans, UniProt Q8J224+Q9Y764); test: Assay protocol for determining IC50 of fungal GGPTase inhibitors (3H-GGPP, FlashPlate); assay type: biochemical; conditions: 2 nM C. albicans GGPTase, 250 nM 3H-GGPP, 250 nM C. albicans Rho; read-out: CaGGTase
C. albicans GGPTase, sequence (Q9Y764 entry or part of it): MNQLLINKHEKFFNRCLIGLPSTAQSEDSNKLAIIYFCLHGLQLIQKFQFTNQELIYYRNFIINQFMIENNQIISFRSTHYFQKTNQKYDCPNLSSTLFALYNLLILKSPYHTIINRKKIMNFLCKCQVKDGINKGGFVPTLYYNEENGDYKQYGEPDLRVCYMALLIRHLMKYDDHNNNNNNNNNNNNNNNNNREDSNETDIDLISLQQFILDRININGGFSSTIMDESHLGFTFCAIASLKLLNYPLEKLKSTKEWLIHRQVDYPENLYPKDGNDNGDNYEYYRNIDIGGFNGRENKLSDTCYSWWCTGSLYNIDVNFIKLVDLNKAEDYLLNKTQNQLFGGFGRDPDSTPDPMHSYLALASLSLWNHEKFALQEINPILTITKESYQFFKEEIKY
C. albicans GGPTase, sequence (Q8J224 entry or part of it): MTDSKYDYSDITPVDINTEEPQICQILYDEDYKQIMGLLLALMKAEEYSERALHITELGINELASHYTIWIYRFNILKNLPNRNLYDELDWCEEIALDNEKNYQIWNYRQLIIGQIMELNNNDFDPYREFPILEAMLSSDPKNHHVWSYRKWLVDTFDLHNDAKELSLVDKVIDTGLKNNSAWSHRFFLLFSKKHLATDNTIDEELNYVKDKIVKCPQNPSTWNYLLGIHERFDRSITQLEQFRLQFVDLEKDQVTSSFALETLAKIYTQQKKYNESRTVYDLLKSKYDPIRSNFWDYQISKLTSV
Description: (i) Assay Protocol for Determining IC50
Plate test compounds (10 μL per well) at predetermined concentration in 50% DMSO. For background control (blank) and reaction control (negative), add 10 μL of 200 μM GGPP and 10 μL 50% DMSO, respectively. Prepare assay buffer: 50 mM Tris, pH7.5, 20 mM KCL, 5 mM MgCl2, 5 μM ZnCl2, 0.5 mM Zw(3-14), 2 mM DTT and 0.1 mg/mL BSA.
Add 20 μL of C. albicans GGPTase and ^3H-GGPP in assay buffer to test compound. Preincubate enzyme and ^3H-GGPP with test compound for 15 minutes at room temperature. Add 20 μL C. albicans Rho in assay buffer. Incubate for 30 minutes at room temperature. Final assay conditions are 2 nM C. albicans GGPTase, 250 nM ^3H-GGPP and 250 nM C. albicans Rho.
Add 100 μL 15 mM GGPP, 50 mM Tris, pH 7.0 and 2% BSA to quench reaction. Transfer reaction to Nickel chelate FlashPlate. Allow his-tagged C. albcians Rho to capture onto plate. Rinse plate 1× with 200 μL 20 mM Tris, pH 7.0. Read in TOPCOUNT.

[4] = system: C. albicans; test: In vitro susceptibility testing of compounds in C. albicans (MIC); assay type: cell-based; conditions: concentration where no visible growth is observed, 35° C., read at 24 hr and 48 hr; for MIC: Candida albicans, read-out: C. alb MIC
Description: (ii) In vitro Susceptibility Testing of Compounds in C. albicans […] Innoculate strain C. albicans strain such as SC5314 into 20 mL of the appropriate medium and incubate at 35° C. with shaking (220 rpm) overnight 2: Count the C. albicans cells in a 1:10 dilution of the overnight culture using a haemocytometer. 3: Work out the dilution factor required to bring the cell number to 1×10^3 cells/100 μL (equivalent to 1×10^4 cells/mL) then add the required volume of the overnight culture to 25 mL media in a falcon tube. 4: Vortex the diluted cells and immediately pipette 100 μL of the cell suspension to each of the required rows of a 96 well plate using the multipipettor 5: Prepare each of the 100× stock solutions for the compounds to be tested in DMSO in the required concentration range in Eppendorf tubes. 6: The dilution series for each of the compounds may now be prepared in sequence: For each compound—start with highest dilution. Add 10 μL compound in DMSO to the 490 μL of appropriate media. Immediately vortex and add 100 μL to the appropriate row of cells on the 96-well plate. Repeat this process for the next and subsequent concentrations of this compound before starting on the dilution series for additional compounds. 7: When complete cover the 96-well plate with an acetate sheet and incubate at 35° C. Inspect visually and record results for both plates at 24 hr and 48 hr. The MIC corresponds to the concentration of compound where no visible growth is observed.

[5] = system: C. albicans; test: Determination of minimum fungicidal concentrations (MFC); assay type: cell-based; conditions: concentration where no cellular growth is observed on the plate after plating out MIC wells; for MFC: Candida albicans, read-out: C. alb MFC
Description: (iii) Determination of Minimum Fungicidal Concentrations (MFC) After the required time course for the MIC determination, the minimum fungicidal concentration can then be determined by plating out the entire contents of the well of the microtitre plates onto YPD or Sabourand plates. These plates are then incubated at 35° C. for 24-48 hrs. The MFC corresponds to the concentration of compound where no cellular growth is observed on the plate.

CAK1, sequence (A0A1D8PH53 entry or part of it): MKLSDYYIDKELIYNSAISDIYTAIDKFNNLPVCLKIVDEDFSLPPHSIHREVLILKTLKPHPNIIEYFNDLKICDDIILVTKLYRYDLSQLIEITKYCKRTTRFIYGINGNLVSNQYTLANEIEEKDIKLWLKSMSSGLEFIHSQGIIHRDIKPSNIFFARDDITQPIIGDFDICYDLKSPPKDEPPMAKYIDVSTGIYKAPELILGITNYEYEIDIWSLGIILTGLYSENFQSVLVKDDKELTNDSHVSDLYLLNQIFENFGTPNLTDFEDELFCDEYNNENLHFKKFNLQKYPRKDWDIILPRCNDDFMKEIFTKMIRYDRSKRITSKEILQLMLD

SMILES	pIC50 [1]	pIC50 [3]	MIC [4] [µg/mL]	MFC [5] [µg/mL]	other results
O=C1CCc2cc(C(=O)CSc3ccc(Cl)cc3Cl)ccc2N1 [Compound 105]	> 4.30				
CN(C)C(=O)c1ccc2nc(NC(=O)[C@H]3CC[C@@H](CN)CC3)sc2c1					inhibitor of fungal N-myristoyltransferase [2]: potent inhibitor
Cn1cncc1CN1CCN(C(=O)N(Cc2cccc(Cl)c2)Cc2cccc(Cl)c2)CC1C(=O)NC[C@H]1CO[C@](Cn2ccnc2)(c2ccc(Cl)cc2Cl)O1 (stereo partly shown) [Compound 1]		> 7.00	< 10	< 10	
Cn1cncc1CN1CCN(C(=O)N(Cc2cccc(Cl)c2)Cc2cccc(Cl)c2)C[C@@H]1C(=O)NC[C@H]1CO[C@](Cn2ccnc2)(c2ccc(Cl)cc2Cl)O1 [Compound 12]					C. alb MIC [4]: <10 µg/mL; C. alb MFC [5]: <10 µg/mL
CCOC(=O)C1=C(C)N(Cc2ccccc2)C(=O)NC1c1ccc(OC(F)(F)F)cc1 (stereo not shown) [Compound 106]	> 4.30				
Cn1cncc1CN1CCN(C(=O)N(Cc2cccc(Cl)c2)Cc2cccc(Cl)c2)C[C@@H]1CNC1CO[C@@](Cn2cncn2)(c2ccc(Cl)cc2Cl)O1 (stereo partly shown) [Compound 9]					C. alb MIC [4]: <10 µg/mL; C. alb MFC [5]: <10 µg/mL
O=C(c1cc(C(O)(Cn2ccnc2)c2ccccc2)ccc1-c1ccccc1)N(Cc1ccccc1)Cc1ccccc1 (stereo not shown) [Compound 108]	> 4.30				
Cn1cncc1CN(C[C@@H]1CO[C@@](Cn2ccnc2)(c2ccc(Cl)cc2Cl)O1)C1CCN(C(=O)N(Cc2cccc(Cl)c2)Cc2cccc(Cl)c2)CC1 [Compound 5]		> 7.00	< 10	< 10	
O=C(CSc1ccccn1)c1ccc(OCc2ccc([N+](=O)O)cc2)cc1 [Compound 102]	> 5.00				
CCOC(=O)c1c(NC(=O)c2c(OC)cccc2OC)sc(C)c1C [Compound 103]	> 4.30				
CCOC(=O)c1c(NC(=O)c2c(OC)cccc2OC)sc2c1CCC(C)C2 (stereo not shown) [Compound 104]	< 4.30				
O=C(c1ccccc1OCC1COC(Cn2ccnc2)(c2ccc(Cl)cc2Cl)O1)N(Cc1ccccc1)Cc1ccccc1 (stereo not shown) [Compound 107]	> 5.00				
Cn1cncc1CN(CC(=O)NC[C@@H]1CO[C@@](Cn2ccnc2)(c2ccc(Cl)cc2Cl)O1)C1CCN(C(=O)N(Cc2cccc(Cl)c2)Cc2cccc(Cl)c2)CC1 [Compound 4]		> 7.00	< 10	< 10	
Cc1onc(-c2c(Cl)cccc2Cl)c1C(=O)Nc1cccc(-c2ncon2)c1 [Compound 101]	> 4.30				

Second part, led by results:

pIC50 [1]	pIC50 [3]	MIC [4] [µg/mL]	SMILES	MFC [5] [µg/mL]	other results
	> 7.00	< 10	Cn1cncc1CN1CCN(C(=O)N(Cc2cccc(Cl)c2)Cc2cccc(Cl)c2)C[C@@H]1C(=O)NC[C@@H]1CO[C@@](Cn2cncn2)(c2ccc(Cl)cc2Cl)O1 [Compound 10]	< 10	
	> 7.00	< 10	Cn1cncc1CN1CCN(C(=O)N(Cc2cccc(Cl)c2)Cc2cccc(Cl)c2)C[C@@H]1C(=O)NC[C@H]1CO[C@](Cn2ccnc2)(c2ccc(Cl)cc2Cl)O1 [Compound 11]	< 10	
	> 7.00	< 10	C[C@@H](c1nc(CN(Cc2cncn2C)[C@H]2CCN(C(=O)N(Cc3cccc(Cl)c3)Cc3cccc(Cl)c3)C2)cs1)[C@@](O)(c1ccc(F)cc1F)n1cncn1 [Compound 16]	< 10	
	> 7.00	< 10	C[C@@H](c1nc([C@H]2CN(C(=O)N(Cc3cccc(Cl)c3)Cc3cccc(Cl)c3)CCN2Cc2cncn2C)cs1)[C@@](O)(c1ccc(F)cc1F)n1cncn1 [Compound 15]	< 10	
	> 7.00	< 10	C[C@H](NC(=O)C1CN(C(=O)N(Cc2cccc(Cl)c2)Cc2cccc(Cl)c2)CCN1Cc1cncn1C)[C@](O)(Cn1cncn1)c1ccc(F)cc1F (stereo partly shown) [Compound 2]	< 10	
	> 7.00	< 10	Cn1cncc1CN1CCN(C(=O)N(Cc2cccc(Cl)c2)Cc2cccc(Cl)c2)C[C@@H]1CNC1CO[C@@](Cn2cncn2)(c2ccc(Cl)cc2Cl)O1 (stereo partly shown) [Compound 8]	< 10	
	> 7.00	< 10	Cn1cncc1CN1CCN(C(=O)N(Cc2cccc(Cl)c2)Cc2cccc(Cl)c2)C[C@@H]1C(=O)NC[C@@H]1CO[C@@](Cn2ccnc2)(c2ccc(Cl)cc2Cl)O1 [Compound 13]	< 10	
	> 7.00	< 10	Cn1cncc1CN1CCN(C(=O)N(Cc2cccc(Cl)c2)Cc2cccc(Cl)c2)C[C@H]1C(=O)NC[C@@H]1CO[C@@](Cn2ccnc2)(c2ccc(Cl)cc2Cl)O1 [Compound 14]	< 10	
